According to US9353082B2, “Pharmaceutical compounds” (BIAL—PORTELA & CA, S.A., priority 2008, dated 2016):

Experiments:
[1] = molecular target: T1, FAAH (Rattus norvegicus, UniProt P97612); assay: In vitro FAAH activity in rat brain membranes, 3H-AEA substrate, % of control; format: biochemical, Wistar rats; conditions: rat brain membranes, compound at 100 nM, low value = strong inhibitor
T1 construct: Frozen brains (without cerebellum) from Wistar rats were used; from tissue; host or cells: Wistar rat brain (without cerebellum), washed membrane pellets
T1 sequence (P97612 1-579): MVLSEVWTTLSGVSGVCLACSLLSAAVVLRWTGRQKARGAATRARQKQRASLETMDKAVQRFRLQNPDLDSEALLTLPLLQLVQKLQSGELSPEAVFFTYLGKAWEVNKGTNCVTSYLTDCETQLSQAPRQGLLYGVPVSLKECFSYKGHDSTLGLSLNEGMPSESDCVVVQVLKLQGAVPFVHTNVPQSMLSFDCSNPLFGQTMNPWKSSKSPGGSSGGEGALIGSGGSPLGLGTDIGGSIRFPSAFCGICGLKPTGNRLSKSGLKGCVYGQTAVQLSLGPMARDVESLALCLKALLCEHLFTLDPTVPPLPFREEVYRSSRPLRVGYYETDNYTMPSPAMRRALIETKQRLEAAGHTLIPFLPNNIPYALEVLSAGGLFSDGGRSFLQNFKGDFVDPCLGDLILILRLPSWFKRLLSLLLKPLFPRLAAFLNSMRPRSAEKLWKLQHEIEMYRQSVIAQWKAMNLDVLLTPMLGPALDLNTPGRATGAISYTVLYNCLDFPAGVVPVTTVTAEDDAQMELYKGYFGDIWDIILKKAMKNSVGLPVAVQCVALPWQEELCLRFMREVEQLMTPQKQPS
Method in brief: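 Wistar rat brain membranes (5 μg protein) preincubated 15 min at 37 °C with compound at 10 μM or 0.1 μM (0.1% DMSO), then 2 μM AEA including 3H-AEA with 0.1% BSA, Tris pH 7.6, 10 min. 3H-ethanolamine counted after charcoal stop; % of no-compound control after blank subtraction.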

[2] = molecular target: T2, FAAH (Mus musculus, UniProt O08914); assay: In vivo FAAH inhibition after oral dosing, remaining activity in brain homogenate (BRh, central nervous tissue); set-up: species or system NMRI mice; conditions: brain homogenate, 3 mg/kg, 8 h after dosing; low value = strong inhibitor
T2 construct: A fragment of liver, left lung lobe and brain without cerebellum were removed; from tissue; host or cells: male NMRI mice; brain (without cerebellum) and liver homogenates
T2 sequence (O08914 1-579): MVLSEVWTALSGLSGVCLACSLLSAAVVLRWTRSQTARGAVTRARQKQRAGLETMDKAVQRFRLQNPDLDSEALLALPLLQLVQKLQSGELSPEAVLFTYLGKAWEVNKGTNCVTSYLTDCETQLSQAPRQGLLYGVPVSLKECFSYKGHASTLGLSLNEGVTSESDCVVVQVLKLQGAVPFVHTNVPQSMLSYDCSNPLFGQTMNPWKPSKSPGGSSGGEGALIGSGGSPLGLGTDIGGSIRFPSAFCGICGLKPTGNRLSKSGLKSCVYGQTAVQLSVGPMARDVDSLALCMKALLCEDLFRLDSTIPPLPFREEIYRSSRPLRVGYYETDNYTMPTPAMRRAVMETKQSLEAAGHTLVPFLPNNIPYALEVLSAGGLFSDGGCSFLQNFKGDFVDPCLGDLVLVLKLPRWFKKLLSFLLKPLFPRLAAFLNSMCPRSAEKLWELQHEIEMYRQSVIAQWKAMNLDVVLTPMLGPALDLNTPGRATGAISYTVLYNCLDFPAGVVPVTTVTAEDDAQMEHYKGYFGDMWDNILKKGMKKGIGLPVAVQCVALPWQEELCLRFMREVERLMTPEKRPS
Method in brief: (§1)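 Male NMRI mice, fasted overnight, got 30 or 3 mg/kg compound orally (0.5% CMC suspension or water) and were compared with vehicle controls. Brain (no cerebellum) and liver homogenates were incubated with 2 μM AEA plus 5 nM 3H-AEA at 37 °C, 10 min for brain and 7 min for liver. Remaining FAAH activity is % of vehicle after blank subtraction.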

[3] = molecular target: T2, FAAH; assay: In vivo FAAH inhibition after oral dosing, remaining activity in liver homogenate (LVh, peripheral tissue); set-up: species or system NMRI mice; conditions: liver homogenate, 3 mg/kg, 8 h after dosing; low value = strong inhibitor
Method in brief: as §1

Row | In Vitro 100 nM (FAAH activity, % of control) [1] | In Vivo BRh 3 mg·kg 8 h (remaining FAAH activity, % of control) [2] | In Vivo LVh 3 mg·kg 8 h (remaining FAAH activity, % of control) [3] | SMILES
1 | 146.2 % of control | 130.7 % of control | 145.6 % of control | Cc1nc(-c2ccccc2)nn1C(=O)N(C)C1CCCCC1 [Compound 284, N-cyclohexyl-N,5-dimethyl-3-phenyl-1H-1,2,4-triazole-1-carboxamide]
2 | 112.8 % of control | 104 % of control | 93 % of control | Cc1nc(-c2ccccc2)nn1C(=O)N1COCC1(C)C [Compound 286, (4,4-dimethyloxazolidin-3-yl)(5-methyl-3-phenyl-1H-1,2,4-triazol-1-yl)methanone]
3 | 127.3 % of control | 105.8 % of control | 85.7 % of control | CN(C(=O)n1cnc(-c2cccc(-c3cccc(C(N)=O)c3)c2)c1)C12CC3CC(CC(C3)C1)C2 [Compound 287, 4-(3′-carbamoylbiphenyl-3-yl)-N-methyl-N-tricyclo[3.3.1.13,7]dec-1-yl-1H-imidazole-1-carboxamide-propan-2-ol (1:1)]
4 | 109.8 % of control | 113.2 % of control | 96.1 % of control | CN(C(=O)n1cnc(-c2cccnc2)c1)C12CC3CC(CC(C3)C1)C2 [Compound 289, N-methyl-4-pyridin-3-yl-N-tricyclo[3.3.1.13,7]dec-1-yl-1H-imidazole-1-carboxamide]
5 | 99.2 % of control | 77.9 % of control | 32.4 % of control | CC1(C)COCN1C(=O)n1cnc(-c2ccccc2)c1Cl [Compound 295, (5-chloro-4-phenyl-1H-imidazol-1-yl)(4,4-dimethyloxazolidin-3-yl)methanone]
6 | 56.2 % of control | 137.6 % of control | 10.1 % of control | CN(C(=O)n1cnc(-c2cccc(O)c2)c1)C1CCCCC1 [Compound 307, N-cyclohexyl-4-(3-hydroxyphenyl)-N-methyl-1H-imidazole-1-carboxamide]
7 | 84.3 % of control | 84.3 % of control | 48 % of control | COc1ccc(-c2cn(C(=O)N(C)C3CCCCC3)cn2)cc1F [Compound 314, N-cyclohexyl-4-(3-fluoro-4-methoxyphenyl)-N-methyl-1H-imidazole-1-carboxamide]
8 | 19.2 % of control | 5.9 % of control | 2 % of control | COc1cc(-c2cn(C(=O)N(C)C3CCCCC3)cn2)ccc1F [Compound 319, N-cyclohexyl-4-(4-fluoro-3-methoxyphenyl)-N-methyl-1H-imidazole-1-carboxamide]
9 | 99.5 % of control | 83.3 % of control | 18.5 % of control | COc1cccc(-c2cn(C(=O)N3COCC3(C)C)cn2)c1 [Compound 329, (4,4-dimethyloxazolidin-3-yl)(4-(3-methoxyphenyl)-1H-imidazol-1-yl)methanone]
10 | 29.7 % of control | 22.8 % of control | 11.1 % of control | CN(C(=O)n1cnc(-c2ccc(O)c(F)c2)c1)C1CCCCC1 [Compound 330, N-cyclohexyl-4-(3-fluoro-4-hydroxyphenyl)-N-methyl-1H-imidazole-1-carboxamide]
11 | 3.6 % of control | 4 % of control | 4.9 % of control | CN(C(=O)n1cnc(-c2ccc(O)c(F)c2)c1)C1CCCC1 [Compound 331, N-cyclopentyl-4-(3-fluoro-4-hydroxyphenyl)-N-methyl-1H-imidazole-1-carboxamide]
12 | 88.5 % of control | 60 % of control | 19.5 % of control | CC1(C)COCN1C(=O)n1cnc(-c2ccc(O)c(F)c2)c1 [Compound 332, (4,4-dimethyloxazolidin-3-yl)(4-(3-fluoro-4-hydroxyphenyl)-1H-imidazol-1-yl)methanone]
13 | 81.9 % of control | 119 % of control | 81.5 % of control | CC1(C)COCN1C(=O)n1cnc(-c2ccc(F)c(O)c2)c1 [Compound 333, (4,4-dimethyloxazolidin-3-yl)(4-(4-fluoro-3-hydroxyphenyl)-1H-imidazol-1-yl)methanone]
14 | 58.2 % of control | 9.9 % of control | 5.1 % of control | CN(C(=O)n1cnc(-c2cc3ccccc3o2)c1)C1CCCCC1 [Compound 334, 4-(benzofuran-2-yl)-N-cyclohexyl-N-methyl-1H-imidazole-1-carboxamide]
15 | 75.4 % of control | 3.1 % of control | 1 % of control | CN(C(=O)n1cnc(-c2cccnc2)c1)C1CCCCC1 [Compound 335, N-cyclohexyl-N-methyl-4-(pyridin-3-yl)-1H-imidazole-1-carboxamide]
16 | 44.7 % of control | 95.5 % of control | 19.7 % of control | CN(C(=O)n1cnc(-c2ccc(F)c(O)c2)c1)C1CCCCC1 [Compound 343, N-cyclohexyl-4-(4-fluoro-3-hydroxyphenyl)-N-methyl-1H-imidazole-1-carboxamide]
17 | 1.7 % of control | 121.1 % of control | 2.1 % of control | CN(C(=O)n1cnc(-c2ccc(F)c(O)c2)c1)C1CCCC1 [Compound 344, N-cyclopentyl-4-(4-fluoro-3-hydroxyphenyl)-N-methyl-1H-imidazole-1-carboxamide]
18 | 109.6 % of control | 76.6 % of control | 24.5 % of control | CC1(C)COCN1C(=O)n1cnc(-c2cccc(O)c2)c1 [Compound 347, (4,4-dimethyloxazolidin-3-yl)(4-(3-hydroxyphenyl)-1H-imidazol-1-yl)methanone]
19 | 95.6 % of control | 7.1 % of control | 11.7 % of control | COc1cc(-c2cn(C(=O)N3COCC3(C)C)cn2)ccc1F [Compound 351, (4,4-dimethyloxazolidin-3-yl)(4-(4-fluoro-3-methoxyphenyl)-1H-imidazol-1-yl)methanone]
